# Measured values published in article PMC11018795, “The regulatory relationship between NAMPT and PD-L1 in cancer and identification of a dual-targeting inhibitor” (EMBO Molecular Medicine, 2024).
# Values joined by “and” are separate entries in the source; they are usually repeats but may differ in a detail not shown here. Identical values can stand only once.
# Key:
# [1] = tested on: H1299 cells; experiment: MTT assay 48 h, H1299; assay type: cell-based, human; conditions: 1299
# Description: (§1) Cells (5 × 10^3/well) were seeded into a 96-well plate and cultured at 37 °C in a 5% CO2 incubator. […] At the final time point, 10 μl MTT solution (5 mg/ml, Sigma, Burlington, MA, USA) was added to each well and incubated for an additional 4 h at 37 °C in a 5% CO2 incubator. Then,100 μl of DMSO was added to each well and mixed thoroughly. Optical density was measured at 492 nm using a microplate reader (Molecular Devices, San Jose, CA, USA).
# [2] = tested on: A549 cells; experiment: MTT assay 48 h, A549; assay type: cell-based, human
# Description: as §1
# [3] = tested on: A2780 cells; experiment: Apoptosis assay (Annexin V/PI), A2780; assay type: cell-based, human
# Description: The cells are treated with the compounds. After 48–72 h, the cells were harvested and washed twice with cold PBS. The cells were then stained with Annexin V/propidium iodide (PI) (BD Biosciences) and examined using a NovoCyte Flow Cytometer (ACEA Biosciences). Data were analyzed using NovoExpress software (ACEA Biosciences).
# [4] = tested on: A2780, HCT-116, LLC, CT-26 cells co-cultured with T cells; experiment: T-cell-mediated tumor cell killing assay, A2780, HCT-116, LLC, CT-26; assay type: cell-based, human, mouse; conditions: 72 h co-culture
# Description: (§2) To acquire activated T cells, human peripheral blood mononuclear cells (PBMC; LTS1077, Yanjin Biological) were cultured in CTSTM AIIM VTM SFM (A3021002; Gibco) with ImmunoCult Human CD3/CD28/CD2 T-cell activator (25 µL/mL; […] Technologies, Cat#10970) for 48 h according to the manufacturer’s protocol. The experiments were performed using mouse anti-CD3 antibody (1 µg/mL; Thermo Scientific, 16-0032-82) and anti-CD28 antibody(5 µg/mL; Thermo Scientific, 16-0281-82). […] Different proportions of cancer cells and activated T cells were utilized according to the purpose of each experiment. The T-cell proliferation assay was 1:3; the T-cell killing assay was 1:10; T cells and cell debris were removed by PBS washing, and the living cancer cells were then quantified by a spectrometer at OD (570 nm) followed by crystal violet staining.
# [5] = tested on: LLC cells co-cultured with T cells; experiment: T cell killing assay (colony formation), LLC sh Vector; assay type: cell-based; conditions: Mus musculus, 72 h, 100 nM, three days, read-out: inhibition rate of colony formation number
# Description: as §2, with “μL/mL;” for “µL/mL;”, “manufacturer's” for “manufacturer’s”, “μg/mL;” for “µg/mL;”, “staining. page 28: Fig 8: Effects of LZFPN-90 and NMN on tumor immune microenvironment. […] (C) T cells were co-cultured with LLC cells, and treated with LZFPN-90 (100 nM), and NMN (1 mM) to detect the cell proliferation by T cell killing assay. Data are presented as mean ± SEM; *P < 0.05, **P < 0.01, ***P < 0.001 compared with control. n.s., not significant. (1 picture or pasted object on this page, not shown here)” for “staining.”
# [6] = tested on: HepG2 cells; experiment: MTT assay 48 h, HepG2; assay type: cell-based, human
# Description: as §1
# [7] = tested on: LLC sh PD-L1 cells co-cultured with T cells; experiment: T cell killing assay (colony formation), LLC sh PD-L1; assay type: cell-based; conditions: Mus musculus, 72 h, 100 nM, three days, read-out: inhibition rate of colony formation number
# Description: as §2, with “μL/mL;” for “µL/mL;”, “manufacturer's” for “manufacturer’s”, “μg/mL;” for “µg/mL;”, “staining. page 28: Fig 8: Effects of LZFPN-90 and NMN on tumor immune microenvironment. […] (C) T cells were co-cultured with LLC cells, and treated with LZFPN-90 (100 nM), and NMN (1 mM) to detect the cell proliferation by T cell killing assay. Data are presented as mean ± SEM; *P < 0.05, **P < 0.01, ***P < 0.001 compared with control. n.s., not significant. (1 picture or pasted object on this page, not shown here)” for “staining.”
# [8] = tested on: A2780 cells; experiment: Clonogenic assay, A2780; assay type: cell-based, human; conditions: 9 days
# Description: Cells (3 × 10^2/well) were plated in a six-well plate and the culture medium was replaced every 2 days. After culturing for 7–10 d, the cells were fixed with 4% paraformaldehyde for 15 min, stained with 0.1% crystal violet for 30 min, and imaged and counted.
# [9] = tested on: HCT-116 cells; experiment: MTT assay 48 h, HCT-116; assay type: cell-based, human
# Description: as §1
compound,measurement,setting,value
CCN(CC)CCCOc1cccc(-c2cccc3c2CCN3C(=O)c2ncc(CNC(=NC#N)Nc3ccncc3)s2)c1 [LZFPN-90],Relative inhibition (敏感性),[1],0.02
same,Relative inhibition (敏感性),[2],0.24
same,Apoptotic cells (sum of both Annexin-positive quadrants),[3]; LZ90 15 nM,5.88 and 5.86 and 5.93
same,Apoptotic cells (sum of both Annexin-positive quadrants),[3]; LZ90 60 nM,12.2 and 12.06 and 12.87
same,Apoptotic cells (sum of both Annexin-positive quadrants),[3]; LZ90 240 nM,48.53 and 48.13 and 46.72
same,"T-cell killing of tumor cells, comparison at the same concentration",[4],more effective than BMS202
same,inhibition at 0.1 µM,[5],48.2%
same,Relative inhibition (敏感性),[6],0.58
same,inhibition at 0.1 µM,[7],21.9%
same,Colony formation relative to Ctrl,[8]; LZ90-H (2 nM),0.01
same,Colony formation relative to Ctrl,"[8]; LZ90-L (0.5 nM), Ctrl = 1",0.64
same,Colony formation relative to Ctrl,[8]; LZ90-M (1 nM),0.11
same,Relative inhibition (敏感性),[9],0.61
